According to publication PMC11544091 (Nature Communications, 2024):

Target: T1, human A3R (Homo sapiens, UniProt P0DMS8)
T1 sequence (P0DMS8 1-318): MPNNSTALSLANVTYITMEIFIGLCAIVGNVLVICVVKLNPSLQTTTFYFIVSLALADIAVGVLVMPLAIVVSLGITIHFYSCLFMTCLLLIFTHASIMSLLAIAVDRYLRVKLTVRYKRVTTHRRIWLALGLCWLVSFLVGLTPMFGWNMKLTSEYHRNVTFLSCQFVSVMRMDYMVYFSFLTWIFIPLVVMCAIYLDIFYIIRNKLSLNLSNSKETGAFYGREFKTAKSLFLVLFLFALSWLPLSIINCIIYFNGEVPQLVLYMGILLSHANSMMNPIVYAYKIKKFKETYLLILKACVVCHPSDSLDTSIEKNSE
Experiment: TGFα shedding assay, human A3R WT
Assay type: cell-based
Conditions: for activation of A3R (in words): human A3R

Row | Molecule | calculated intrinsic activity (RAi) relative to adenosine (A3R) [%] | activation of A3R (in words) | potency towards all four adenosine receptors (in words) (A1R, A2AR, A2BR, A3R)
1 | CC(C)=CCNc1ncnc2c1ncn2[C@@H]1O[C@H](CO)[C@@H](O)[C@H]1O [i6A, N6-Isopentenyladenosine] | 59 | selectively activates A3R | 
2 | CN(C)c1ncnc2c1ncn2[C@@H]1O[C@H](CO)[C@@H](O)[C@H]1O [m6,6A, N6,N6-Dimethyladenosine] | 7 | very weak activation of A3R | 
3 | C[C@@H](O)[C@H](NC(=O)Nc1ncnc2c1ncn2[C@@H]1O[C@H](CO)[C@@H](O)[C@H]1O)C(=O)O [t6A, N6-Threonylcarbamoyladenosine] |  | did not show any potency on A3R | 
4 | 1-methyladenosine [m^1A] |  | can also induce A3R activation | weak and non-selective potency
